Laboratory results taken from ChEMBL document CHEMBL5357031, “Design and Synthesis of Cytotoxic Water-Soluble Rocaglaol Derivatives against HEL Cells by Inhibiting Fli-1” (J Nat Prod, 2024).

Columns and labels:
HEL [1] = assay: Induction of cell cycle arrest in HEL cells assessed as cell accumulation at G2/M phase at 0.4 uM incubated for 24 hrs by […] (reference value: 16.18 %); type: functional, Homo sapiens
HEL [2] = assay: Induction of cell cycle arrest in HEL cells assessed as cell accumulation at G1 phase at 0.2 uM incubated for 24 hrs by Western blot analysis (reference value: 39.11 %); type: functional, Homo sapiens
HEL [3] = assay: Induction of apoptosis in HEL cells assessed as viable cells at 0.2 uM incubated for 48 hrs by Annexin V/PI staining based flow cytometry (reference value: 95.63 %); type: functional; details: Homo sapiens, read-out: Activity
HEL [4] = assay: Induction of cell cycle arrest in HEL cells assessed as cell accumulation at G1 phase at 0.2 uM incubated for 48 hrs by […] (reference value: 54.17 %); type: functional, Homo sapiens
HEL [5] = assay: Induction of apoptosis in HEL cells assessed as late apoptotic cells at 0.4 uM incubated for 48 hrs by Annexin V/PI staining based flow cytometry (reference value: 1.83 %); type: functional, Homo sapiens
HEL [6] = assay: Induction of apoptosis in HEL cells assessed as necrotic cells at 0.4 uM incubated for 24 hrs by Annexin V/PI staining based flow cytometry (reference value: 1.61 %); type: functional, Homo sapiens
HEL [7] = assay: Induction of apoptosis in HEL cells assessed as late apoptotic cells at 0.2 uM incubated for 24 hrs by Annexin V/PI staining based flow cytometry (reference value: 1.98 %); type: functional, Homo sapiens
SW480 = assay: Cytotoxicity against human SW480 cells assessed as cell growth inhibition incubated for 72 hrs by MTT assay; type: functional, cell-based; details: sw480
[8] = Solubility of compound in PBS at pH 7.4 at 1.7 mg measured for 24 hrs by HPLC-UV analysis; type: physicochemical
HEL [9] = assay: Induction of cell cycle arrest in HEL cells assessed as cell accumulation at G1 phase at 0.1 uM incubated for 48 hrs by […] (reference value: 54.17 %); type: functional, Homo sapiens
HEL [10] = assay: Induction of cell cycle arrest in HEL cells assessed as cell accumulation at G1 phase at 0.4 uM incubated for 24 hrs by […] (reference value: 39.11 %); type: functional, Homo sapiens
HEL [11] = assay: Induction of apoptosis in HEL cells assessed as necrotic cells at 0.1 uM incubated for 24 hrs by Annexin V/PI staining based flow cytometry (reference value: 1.61 %); type: functional, Homo sapiens
HEL [12] = assay: Induction of cell cycle arrest in HEL cells assessed as cell accumulation at S phase at 0.1 uM incubated for 48 hrs by […] (reference value: 33.66 %); type: functional, Homo sapiens
HEL [13] = assay: Induction of apoptosis in HEL cells assessed as early apoptotic cells at 0.1 uM incubated for 48 hrs by Annexin V/PI staining based flow cytometry (reference value: 1.62 %); type: functional, Homo sapiens
HEL [14] = assay: Induction of apoptosis in HEL cells assessed as viable cells at 0.1 uM incubated for 48 hrs by Annexin V/PI staining based flow cytometry (reference value: 95.63 %); type: functional; details: Homo sapiens, read-out: Activity
HEL [15] = assay: Cytotoxicity against HEL cells assessed as cell growth inhibition incubated for 72 hrs by MTT assay; type: functional, cell-based, Homo sapiens; details: hel
HEL [16] = assay: Induction of apoptosis in HEL cells assessed as late apoptotic cells at 0.1 uM incubated for 48 hrs by Annexin V/PI staining based flow cytometry (reference value: 1.83 %); type: functional, Homo sapiens
HEL [17] = assay: Induction of cell cycle arrest in HEL cells assessed as cell accumulation at G2/M phase at 0.1 uM incubated for 48 hrs by […] (reference value: 20.36 %); type: functional, Homo sapiens
HEL [18] = assay: Induction of cell cycle arrest in HEL cells assessed as cell accumulation at G2/M phase at 0.2 uM incubated for 24 hrs by […] (reference value: 16.18 %); type: functional, Homo sapiens
HEL [19] = assay: Induction of apoptosis in HEL cells assessed as late apoptotic cells at 0.2 uM incubated for 48 hrs by Annexin V/PI staining based flow cytometry (reference value: 1.83 %); type: functional, Homo sapiens
HEL [20] = assay: Induction of apoptosis in HEL cells assessed as necrotic cells at 0.2 uM incubated for 48 hrs by Annexin V/PI staining based flow cytometry (reference value: 0.92 %); type: functional, Homo sapiens
HEL [21] = assay: Induction of apoptosis in HEL cells assessed as late apoptotic cells at 0.1 uM incubated for 24 hrs by Annexin V/PI staining based flow cytometry (reference value: 1.98 %); type: functional, Homo sapiens
HEL [22] = assay: Induction of apoptosis in HEL cells assessed as necrotic cells at 0.1 uM incubated for 48 hrs by Annexin V/PI staining based flow cytometry (reference value: 0.92 %); type: functional, Homo sapiens
HEL [23] = assay: Induction of apoptosis in HEL cells assessed as early apoptotic cells at 0.4 uM incubated for 24 hrs by Annexin V/PI staining based flow cytometry (reference value: 1.47 %); type: functional, Homo sapiens
HEL [24] = assay: Induction of apoptosis in HEL cells assessed as early apoptotic cells at 0.2 uM incubated for 24 hrs by Annexin V/PI staining based flow cytometry (reference value: 1.47 %); type: functional, Homo sapiens
HEL [25] = assay: Induction of apoptosis in HEL cells assessed as necrotic cells at 0.4 uM incubated for 48 hrs by Annexin V/PI staining based flow cytometry (reference value: 0.92 %); type: functional, Homo sapiens
HEL [26] = assay: Induction of cell cycle arrest in HEL cells assessed as cell accumulation at S phase at 0.1 uM incubated for 24 hrs by […] (reference value: 16.18 %); type: functional, Homo sapiens
HEL [27] = assay: Induction of cell cycle arrest in HEL cells assessed as cell accumulation at S phase at 0.4 uM incubated for 24 hrs by […] (reference value: 16.18 %); type: functional, Homo sapiens
HEL [28] = assay: Induction of apoptosis in HEL cells assessed as late apoptotic cells at 0.4 uM incubated for 24 hrs by Annexin V/PI staining based flow cytometry (reference value: 1.98 %); type: functional, Homo sapiens
HEL [29] = assay: Induction of cell cycle arrest in HEL cells assessed as cell accumulation at G1 phase at 0.1 uM incubated for 24 hrs by […] (reference value: 39.11 %); type: functional, Homo sapiens
HEL [30] = assay: Induction of cell cycle arrest in HEL cells assessed as cell accumulation at G1 phase at 0.4 uM incubated for 48 hrs by […] (reference value: 54.17 %); type: functional, Homo sapiens
HEL [31] = assay: Induction of apoptosis in HEL cells assessed as viable cells at 0.2 uM incubated for 24 hrs by Annexin V/PI staining based flow cytometry (reference value: 94.94 %); type: functional; details: Homo sapiens, read-out: Activity
HEL [32] = assay: Induction of apoptosis in HEL cells assessed as necrotic cells at 0.2 uM incubated for 24 hrs by Annexin V/PI staining based flow cytometry (reference value: 1.61 %); type: functional, Homo sapiens
HEL [33] = assay: Induction of apoptosis in HEL cells assessed as viable cells at 0.1 uM incubated for 24 hrs by Annexin V/PI staining based flow cytometry (reference value: 94.94 %); type: functional; details: Homo sapiens, read-out: Activity
HEL [34] = assay: Induction of cell cycle arrest in HEL cells assessed as cell accumulation at S phase at 0.4 uM incubated for 48 hrs by […] (reference value: 33.66 %); type: functional, Homo sapiens
HEL [35] = assay: Induction of cell cycle arrest in HEL cells assessed as cell accumulation at G2/M phase at 0.1 uM incubated for 24 hrs by […] (reference value: 16.18 %); type: functional, Homo sapiens
HEL [36] = assay: Induction of apoptosis in HEL cells assessed as early apoptotic cells at 0.2 uM incubated for 48 hrs by Annexin V/PI staining based flow cytometry (reference value: 1.62 %); type: functional, Homo sapiens
HEL [37] = assay: Induction of cell cycle arrest in HEL cells assessed as cell accumulation at S phase at 0.2 uM incubated for 24 hrs by […] (reference value: 16.18 %); type: functional, Homo sapiens
HEL [38] = assay: Induction of cell cycle arrest in HEL cells assessed as cell accumulation at G2/M phase at 0.2 uM incubated for 48 hrs by […] (reference value: 20.36 %); type: functional, Homo sapiens
HEL [39] = assay: Induction of cell cycle arrest in HEL cells assessed as cell accumulation at S phase at 0.2 uM incubated for 48 hrs by […] (reference value: 33.66 %); type: functional, Homo sapiens
HEL [40] = assay: Induction of cell cycle arrest in HEL cells assessed as cell accumulation at G2/M phase at 0.4 uM incubated for 48 hrs by […] (reference value: 20.36 %); type: functional, Homo sapiens
HEL [41] = assay: Induction of apoptosis in HEL cells assessed as early apoptotic cells at 0.1 uM incubated for 24 hrs by Annexin V/PI staining based flow cytometry (reference value: 1.47 %); type: functional, Homo sapiens
HEL [42] = assay: Induction of apoptosis in HEL cells assessed as early apoptotic cells at 0.4 uM incubated for 48 hrs by Annexin V/PI staining based flow cytometry (reference value: 1.62 %); type: functional, Homo sapiens
HEL [43] = assay: Induction of apoptosis in HEL cells assessed as viable cells at 0.4 uM incubated for 24 hrs by Annexin V/PI staining based flow cytometry (reference value: 94.94 %); type: functional; details: Homo sapiens, read-out: Activity
HEL [44] = assay: Induction of apoptosis in HEL cells assessed as viable cells at 0.4 uM incubated for 48 hrs by Annexin V/PI staining based flow cytometry (reference value: 95.63 %); type: functional; details: Homo sapiens, read-out: Activity

Description for MDA-MB-231: Cytotoxicity against human MDA-MB-231 cells assessed as cell growth inhibition incubated for 72 hrs by MTT assay

COc1cc(OC)c2c(c1)O[C@@]1(c3ccc(OCCCCCN4CCN(C)CC4)cc3)[C@H](c3ccccc3)C[C@@H](O)[C@@]21O.O=C(O)/C=C/C(=O)O (racemic; form 2)
Activity (HEL [1]): 18.31%
Activity (HEL [2]): 50.73%
viability at 0.2 µM (HEL [3]): 82.9%
Activity (HEL [4]): 62.59%
Activity (HEL [5]): 10.08%
Activity (HEL [6]): 1.12%
Activity (HEL [7]): 1.66%
IC50 (SW480): > 1000 nM
solubility at 24 h [8]: 12.5 mg/mL
Activity (HEL [9]): 43.16%
Activity (HEL [10]): 54.17%
Activity (HEL [11]): 1.96%
Activity (HEL [12]): 30.25%
Activity (HEL [13]): 3.45%
viability at 0.1 µM (HEL [14]): 92%
IC50 (HEL [15]): 190 nM
Activity (HEL [16]): 3.54%
Activity (HEL [17]): 25.52%
Activity (HEL [18]): 20.55%
Activity (HEL [19]): 7.65%
Activity (HEL [20]): 3.11%
Activity (HEL [21]): 2.02%
Activity (HEL [22]): 1.02%
Activity (HEL [23]): 2.17%
Activity (HEL [24]): 1.5%
Activity (HEL [25]): 2.21%
Activity (HEL [26]): 39.19%
Activity (HEL [27]): 27.85%
IC50 (MDA-MB-231): > 1000 nM
Activity (HEL [28]): 2.1%
Activity (HEL [29]): 39.54%
Activity (HEL [30]): 66.15%
viability at 0.2 µM (HEL [31]): 95.2%
Activity (HEL [32]): 1.68%
viability at 0.1 µM (HEL [33]): 94.7%
Activity (HEL [34]): 19.87%
Activity (HEL [35]): 21.09%
Activity (HEL [36]): 6.37%
Activity (HEL [37]): 27.85%
Activity (HEL [38]): 15.61%
Activity (HEL [39]): 19.87%
Activity (HEL [40]): 8.35%
Activity (HEL [41]): 1.34%
Activity (HEL [42]): 18.85%
viability at 0.4 µM (HEL [43]): 94.6%
viability at 0.4 µM (HEL [44]): 68.9%
